{
  "source": "patent US4604239A",
  "about": "“Antibiotics” (Eli Lilly and Company, priority 1985, dated 1986)",
  "key": {"Viridans streptococcus": {"tested_on": "Viridans streptococcus", "test": "agar-dilution MIC", "format": "cell-based", "details": "Table 11"}, "electrometric titration": {"test": "electrometric titration", "format": "physicochemical", "details": "electrometric titration in 66% dimethylformamide in water", "source_text": "Antibiotic A41030 factor A is a white, crystalline solid."}, "[1]": {"tested_on": "Streptococcus sp. Group B", "test": "agar-dilution MIC", "format": "cell-based", "details": "end point after 24 hours, Table 18", "source_text": "The in vitro activity of antibiotic A41030 factors A and B against a number of representative aerobic, gram-positive bacteria, including Streptococcus sp. Group D, has been determined using a standard agar-dilution assay."}, "rumen fluid": {"tested_on": "rumen fluid", "test": "in vitro rumen fluid fermentation, volatile fatty acids", "design": "species or system steer", "details": "16 hours at 38° C.", "source_text": "Rumen fluid was obtained from a steer having a surgically-installed fistula opening into the rumen. The steer was maintained on a high-grain ration, the composition of which follows: A sample of rumen fluid was strained through 4 layers of cheesecloth and the filtrate was collected in a vacuum bottle. The particulate matter retained by the cheesecloth was resuspended in enough physiological buffer to return it to the original volume of the rumen fluid, and the suspension was again strained through cheesecloth. The buffer used is described below: The two filtrates were pooled in a separatory funnel and allowed to stand till particulate matter rose to the top. The clear layer was then separated and diluted 1:1 with the same buffer, and adjusted to pH 7.0. Ten ml. of the diluted rumen fluid thus prepared was placed in a 25 ml. flask with 90 mg. of finely-powdered high-grain ration, the composition of which is described above. The compound to be tested was weighed out and dissolved in the appropriate solvent, supra. The solution was placed on the finely-powdered ration in each test flask and dried. Two sets of four untreated control flasks each were also prepared. One set of four untreated control flasks was incubated for 16 hours at 38° C. with the test flasks. […] Fermentation in the incubated test and control flasks was stopped at the end of 16 hours by addition of 2 ml. of 25 percent metaphosphoric acid to each flask. All of the samples were allowed to settle, and the supernatant was analyzed by gas chromatographic methods for acetate, propionate, and butyrate. The analysis for each volatile fatty acid found in the zero-time controls was substracted from the analyses of the untreated controls and of the test flasks. The resulting values reflect the amount of each VFA produced during the 16-hour fermentation period. The data below are reported as the ratio of VFA's produced in treated flasks to VFA's produced in untreated control flasks."}, "Fusobacterium symbiosum": {"tested_on": "Fusobacterium symbiosum", "test": "agar-dilution MIC", "format": "cell-based", "details": "Fusobacterium symbiosum 1470; Table 14"}, "[2]": {"tested_on": "Haemophilus parainfluenzae", "test": "agar-dilution MIC", "format": "cell-based", "details": "end point after 24 hours, Table 18"}, "Streptococcus faecalis": {"tested_on": "Streptococcus faecalis", "test": "agar-dilution MIC", "format": "cell-based", "details": "Streptococcus faecalis X66; Table 7"}, "Propionibacterium acnes": {"tested_on": "Propionibacterium acnes", "test": "agar-dilution MIC", "format": "cell-based", "source_text": "Antibiotic A41030 factors A, B and C have also been tested and found to be active against a genus of anaerobic bacteria identified as Propionibacterium acnes."}, "Neisseria sp.": {"tested_on": "Neisseria sp.", "test": "agar-dilution MIC", "format": "cell-based", "details": "Table 10", "protocol": "The test results are recorded in Table 10, which follows."}, "S. pyogenes": {"tested_on": "S. pyogenes", "test": "experimental bacterial infection in mice", "format": "in vivo"}, "Bacteroides fragilis": {"tested_on": "Bacteroides fragilis", "test": "agar-dilution MIC", "format": "cell-based", "source_text": "(§1) The agar-dilution procedure described by the International Collaborative study (ICS) group was used to determine the minimum inhibitory concentrations (MIC's)."}, "Shigella flexneri": {"tested_on": "Shigella flexneri", "details": "Shigella flexneri SH-4; Table 11", "source_text": "as §1"}},
  "data": [
    {"smiles": "NC1C(=O)NC2Cc3ccc(c(Cl)c3)Oc3cc4cc(c3O)Oc3ccc(cc3Cl)C(O)C3NC(=O)C(NC(=O)C4NC(=O)C(NC2=O)c2cc(O)cc(c2)Oc2cc1ccc2O)c1cc(Cl)c(O)c(c1)-c1c(O)cc(O)cc1C(C(=O)O)NC3=O", "note": "(stereo not drawn) [A41030 factor A]", "values": [
      {"measurement": "MIC", "setting": "Viridans streptococcus; Viridans streptococcus SM-1134", "value": 0.5, "unit": "µg/mL"},
      {"measurement": "MIC", "setting": "Viridans streptococcus; Viridans streptococcus SSI-910", "value": 0.25, "unit": "µg/mL"},
      {"measurement": "MIC", "setting": "Viridans streptococcus; Viridans streptococcus SSII-895", "value": 0.25, "unit": "µg/mL"},
      {"measurement": "possibly additional pKa's", "setting": "electrometric titration", "value": "> 10.5"},
      {"measurement": "MIC", "setting": "[1]; Streptococcus sp. Group B 5", "value": 1, "unit": "µg/mL"},
      {"measurement": "MIC", "setting": "[1]; Streptococcus sp. Group B 14", "value": 0.06, "unit": "µg/mL"},
      {"measurement": "Acetate, ratio of VFA's produced in treated flasks to untreated control flasks", "setting": "rumen fluid; 1 mcg./ml.", "value": 1.01},
      {"measurement": "Butyrate, ratio of VFA's produced in treated flasks to untreated control flasks", "setting": "rumen fluid; 1 mcg./ml.", "value": 0.66},
      {"measurement": "Propionate, ratio of VFA's produced in treated flasks to untreated control flasks", "setting": "rumen fluid; 1 mcg./ml.", "value": 1.31},
      {"measurement": "Acetate, ratio of VFA's produced in treated flasks to untreated control flasks", "setting": "rumen fluid; 2 mcg./ml.", "value": 1.03},
      {"measurement": "Butyrate, ratio of VFA's produced in treated flasks to untreated control flasks", "setting": "rumen fluid; 2 mcg./ml.", "value": 0.94},
      {"measurement": "Propionate, ratio of VFA's produced in treated flasks to untreated control flasks", "setting": "rumen fluid; 2 mcg./ml.", "value": 1.33},
      {"measurement": "MIC", "setting": "Fusobacterium symbiosum", "value": 1.0, "unit": "µg/mL"},
      {"measurement": "MIC", "setting": "[2]; Haemophilus parainfluenzae 7901", "value": 16, "unit": "µg/mL"},
      {"measurement": "MIC", "setting": "[2]; Haemophilus parainfluenzae 9796", "value": 16, "unit": "µg/mL"},
      {"measurement": "MIC", "setting": "Streptococcus faecalis", "value": "< 0.5", "unit": "µg/mL"},
      {"measurement": "MIC", "setting": "Propionibacterium acnes; P. acnes 104, 24-hour, Table 13", "value": 0.25, "unit": "µg/mL"},
      {"measurement": "MIC", "setting": "Propionibacterium acnes; P. acnes 107, 24-hour, Table 13", "value": 0.06, "unit": "µg/mL"},
      {"measurement": "MIC", "setting": "Propionibacterium acnes; P. acnes 5170, 24-hour, Table 13", "value": "≤ 0.03", "unit": "µg/mL"},
      {"measurement": "MIC", "setting": "Propionibacterium acnes; P. acnes 5176, 24-hour, Table 13", "value": "≤ 0.03", "unit": "µg/mL"},
      {"measurement": "MIC", "setting": "Propionibacterium acnes; P. acnes 5187, 24-hour, Table 13", "value": "≤ 0.03", "unit": "µg/mL"},
      {"measurement": "MIC", "setting": "Propionibacterium acnes; P. acnes 5197, 24-hour, Table 13", "value": "≤ 0.03", "unit": "µg/mL"},
      {"measurement": "MIC", "setting": "Propionibacterium acnes; P. acnes 5226, 24-hour, Table 13", "value": 0.5, "unit": "µg/mL"},
      {"measurement": "MIC", "setting": "Propionibacterium acnes; P. acnes 5227, 24-hour, Table 13", "value": "≤ 0.03", "unit": "µg/mL"},
      {"measurement": "MIC", "setting": "Propionibacterium acnes; P. acnes 5228, 24-hour, Table 13", "value": 1.0, "unit": "µg/mL"},
      {"measurement": "MIC", "setting": "Propionibacterium acnes; P. acnes 5229, 24-hour, Table 13", "value": 0.5, "unit": "µg/mL"},
      {"measurement": "MIC", "setting": "Propionibacterium acnes; P. acnes 5246, 24-hour, Table 13", "value": 0.06, "unit": "µg/mL"},
      {"measurement": "MIC", "setting": "Propionibacterium acnes; P. acnes 5292, 24-hour, Table 13", "value": 0.06, "unit": "µg/mL"},
      {"measurement": "MIC", "setting": "Propionibacterium acnes; Propionibacterium acnes 79, Table 14", "value": "≤ 0.25", "unit": "µg/mL"},
      {"measurement": "MIC", "setting": "Neisseria sp.; Neisseria sp. L. Nance", "value": 4.0, "unit": "µg/mL"},
      {"measurement": "MIC", "setting": "Neisseria sp.; Neisseria sp. Mitchell", "value": 4.0, "unit": "µg/mL"},
      {"measurement": "MIC", "setting": "Neisseria sp.; Neisseria sp. Sanders", "value": 1.0, "unit": "µg/mL"},
      {"measurement": "MIC", "setting": "Neisseria sp.; Neisseria sp. Schultz", "value": 8.0, "unit": "µg/mL"},
      {"measurement": "MIC", "setting": "Neisseria sp.; Neisseria sp. Woods", "value": 4.0, "unit": "µg/mL"},
      {"measurement": "ED50", "setting": "S. pyogenes; S. pyogenes infection in mice, two doses subcutaneously", "value": 2.8, "unit": "mg/kg"},
      {"measurement": "in vivo oral activity", "setting": "S. pyogenes; against S. pyogenes in mice, oral", "value": "> 300", "unit": "mg./kg. X 2"},
      {"measurement": "MIC", "setting": "Bacteroides fragilis; B. fragilis 2, 24-hour, Table 12", "value": 64, "unit": "µg/mL"},
      {"measurement": "MIC", "setting": "Bacteroides fragilis; B. fragilis 9, 24-hour, Table 12", "value": 64, "unit": "µg/mL"},
      {"measurement": "MIC", "setting": "Bacteroides fragilis; B. fragilis 103, 24-hour, Table 12", "value": 32, "unit": "µg/mL"},
      {"measurement": "MIC", "setting": "Bacteroides fragilis; B. fragilis 104, 24-hour, Table 12", "value": 32, "unit": "µg/mL"},
      {"measurement": "MIC", "setting": "Bacteroides fragilis; B. fragilis 106, 24-hour, Table 12", "value": 64, "unit": "µg/mL"},
      {"measurement": "MIC", "setting": "Bacteroides fragilis; B. fragilis 107, 24-hour, Table 12", "value": 32, "unit": "µg/mL"},
      {"measurement": "MIC", "setting": "Bacteroides fragilis; B. fragilis 108, 24-hour, Table 12", "value": 32, "unit": "µg/mL"},
      {"measurement": "MIC", "setting": "Bacteroides fragilis; B. fragilis 110, 24-hour, Table 12", "value": 64, "unit": "µg/mL"},
      {"measurement": "MIC", "setting": "Bacteroides fragilis; B. fragilis 111, 24-hour, Table 12", "value": 32, "unit": "µg/mL"},
      {"measurement": "MIC", "setting": "Bacteroides fragilis; B. fragilis 112, 24-hour, Table 12", "value": 64, "unit": "µg/mL"},
      {"measurement": "MIC", "setting": "Bacteroides fragilis; B. fragilis 113, 24-hour, Table 12", "value": 32, "unit": "µg/mL"},
      {"measurement": "MIC", "setting": "Bacteroides fragilis; B. fragilis 1451, 24-hour, Table 12", "value": 64, "unit": "µg/mL"},
      {"measurement": "MIC", "setting": "Bacteroides fragilis; B. fragilis 1470, 24-hour, Table 12", "value": 64, "unit": "µg/mL"},
      {"measurement": "MIC", "setting": "Bacteroides fragilis; B. fragilis 1877, 24-hour, Table 12", "value": 32, "unit": "µg/mL"},
      {"measurement": "MIC", "setting": "Bacteroides fragilis; B. fragilis 9032, 24-hour, Table 12", "value": 64, "unit": "µg/mL"},
      {"measurement": "MIC", "setting": "Bacteroides fragilis; Bacteroides fragilis 1877, Table 14", "value": 32, "unit": "µg/mL"},
      {"measurement": "MIC", "setting": "Bacteroides fragilis; Bacteroides fragilis 1936B, Table 14", "value": 64, "unit": "µg/mL"},
      {"measurement": "MIC", "setting": "Shigella flexneri", "value": 64, "unit": "µg/mL"}
    ]}
  ]
}
